Data on seven molecules can be found in patent publication US5998468A, “Furanone endothelin antagonists” (Warner-Lambert Company, priority 1997, dated 1999).

The IC50 is the concentration that inhibits the measured activity by half.

Test [1] relates to early cerebral vasospasm following SAH. As to conditions: rabbit; cited from earlier work.
Test [2] has the same test system. The note with it: cited from earlier work; for early cerebral vasospasm following SAH: rat.
The test system of the next test is ETA. The note with it: mouse endotoxic shock; cited from earlier work.
The target in another test is endothelin receptor ETB. As to the kind of experiment: Endothelin receptor binding assay-B (ERBA-B), [125I]-ET-1 binding in rat cerebellar membranes. As to conditions: [125I]-ET-1 25 pM, rat cerebellar membranes (also modified with human ETB in CHO-K1). An excerpt:
(§1) The compounds of Formula I are valuable antagonists of endothelin.
Count filters for radioactivity in gamma counter.
The above process has also been modified by using human recombinant CHO-K1 cells.
The tissue used for human ETB was recombinant human ETB receptor expressed in CHO-K1 cells (chinese hamster ovary cells). The gene for human ETB receptor was cloned and inserted into the pRc-CMW expression vector, then transfected into CHO-K1 cells by electroporation. For binding assays, membranes (0.7 mg protein) of CHO-K1 cells expressing recombinant human ETB receptor were used.

The next test addresses T1, endothelin receptor ETA (Oryctolagus cuniculus, UniProt A5A8K3).
T1 sequence (A5A8K3 21-427): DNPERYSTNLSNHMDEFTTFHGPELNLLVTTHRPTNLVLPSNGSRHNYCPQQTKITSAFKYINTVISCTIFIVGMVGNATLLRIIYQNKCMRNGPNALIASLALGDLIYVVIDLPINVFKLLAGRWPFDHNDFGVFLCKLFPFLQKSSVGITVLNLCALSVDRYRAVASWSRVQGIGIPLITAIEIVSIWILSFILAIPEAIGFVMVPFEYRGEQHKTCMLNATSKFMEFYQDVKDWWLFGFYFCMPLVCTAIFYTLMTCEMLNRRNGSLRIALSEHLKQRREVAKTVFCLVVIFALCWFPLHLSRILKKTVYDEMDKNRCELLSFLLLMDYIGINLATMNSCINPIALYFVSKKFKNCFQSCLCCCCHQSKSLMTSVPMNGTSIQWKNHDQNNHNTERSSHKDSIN
It counts as binding. The note with it: [125I]-ET-1 25 pM, rabbit renal artery vascular smooth muscle cells; read-out: ERBA-A IC50.
Description: as §1

The next test concerns basilar artery. As to conditions: after 7 days, canine two-hemorrhage model of SAH; cited from earlier work.

Entries after “also recorded” stand apart in the source; their conditions may differ. Like-named read-outs stand apart in the source and are kept apart here. Where a SMILES comes first, the peptide text is derived from it. [ ]: non-standard residue; d: D form. Some results are limits rather than exact numbers.

On to `CC(C)C[C@@H]1NC(=O)[C@@H](C(C)C)NC(=O)[C@@H]2CCCN2C(=O)[C@@H](CC(=O)O)NC(=O)[C@@H](Cc2c[nH]c3ccccc23)NC1=O` [BQ-123] (cyclo(L[dW][dD]P[dV])), for which the “early cerebral vasospasm following SAH” value in test [1] is “prevents early cerebral vasospasm”; in test [2] it was “prevent early cerebral vasospasm following subarachnoid hemorrhage; also recorded: prevents early cerebral vasospasm”. The survival rate result in the test on ETA is recorded as “significantly increased”.
Take `COc1ccc(C2OC(=O)C(c3ccc4c(c3)OCO4)=C2Cc2ccccc2)cc1` (centres unmarked) [Example 1, 3-Benzo[1,3]dioxol-5-yl-4-benzyl-5-(4-methoxyphenyl)-5H-furan-2-one]: the half-inhibitory concentration (IC50) on endothelin receptor ETB was more than 2500 nM; at endothelin receptor ETA, 700 nM.
Turning to `COc1ccc(C2OC(=O)C(c3ccc4c(c3)OCO4)=C2Cc2cc(OC)c(OC)c(OC)c2)cc1` (centres unmarked) [Example 2, 3-Benzo[1,3]dioxol-5-yl-5-(4-methoxyphenyl)-4-(3,4,5-trimethoxybenzyl)-5H-furan-2-one], on endothelin receptor ETA, the IC50 was determined as 30 nM.
On the same count and under the same terms, for `COc1ccc(CC2=C(c3ccc4c(c3)OCO4)C(=O)OC2c2cc(OC)c(OC)c(OC)c2)cc1` (centres unmarked) [Example 3, 3-Benzo[1,3]dioxol-5-yl-4-(4-methoxybenzyl)-5-(3,4,5-trimethoxyphenyl)-5H-furan-2-one] the value was more than 100 nM; for `COc1ccc(C2OC(=O)C(c3ccc4c(c3)OCO4)=C2Cc2ccc(OC)c(C)c2)cc1` (centres unmarked) [Example 4, 3-Benzo[1,3]dioxol-5-yl-4-(4-methoxy-3-methylbenzyl)-5-(4-methoxyphenyl)-5H-furan-2-one], 200 nM.
As to `COc1cccc(Oc2c(NS(=O)(=O)c3ccc(C(C)(C)C)cc3)ncnc2OCCO)c1` [Ro 46-2005], the “systemic arterial blood pressure” value in test [2] (rat SAH) was “no significant effect”. Moreover, the “early cerebral vasospasm following SAH” value in test [2] is listed as “prevent early cerebral vasospasm”.
As to FR 139317, the “vasoconstriction of the basilar artery” value in the test on basilar artery was “significantly inhibited”.
